In the supplement of paper PMC11451515:

Assays:
Conditions in all cases: 48 h
P12-Ichikawa [1] = assay: AUC of viability dose-response curve (% viability x log10 dose units); higher = less sensitive
Outline: (§1)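 Medium-adapted leukemia cells in 1536-well plates, at 500 or 1000 cells/well, were incubated for 48 h at 37°C with library compounds in DMSO at 11 threefold doses from 47 μM to 0.79 nM. CellTiter-Glo One luminescence normalised per plate to DMSO and cell-free wells was fitted with a four-parameter log-logistic model over log10 doses. Area under the curve was integrated from this fit by trapezoidal rule, with curves beyond full viability scaled and failed quality-control curves removed.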

NOMO1 [2] = assay: as above
Outline: as §1

SEM cells [3] = assay: as above
Outline: as §1

SEM cells [4] = assay: cell viability relative to DMSO control; higher = less cytotoxic
Outline: (§2)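 Library compounds in DMSO were pin-dosed in an 11-point threefold series (47 μM to 0.79 nM) onto leukemia cells in 1536-well plates (5 μl). Plates held 500 cells/well of NOMO1 or SEM or 1000 cells/well of P12-Ichikawa, each adapted for at least four passages in each medium. Luminescence was read with CellTiter-Glo One after 48 h at 37°C. Viability means the per-plate percentage relative to DMSO wells, using cell-free wells as background.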

P12-Ichikawa [5] = assay: as above
Outline: as §2

NOMO1 [6] = assay: as above
Outline: as §2

CC[C@@H]1/C=C(\C)C[C@H](C)C[C@H](OC)[C@H]2O[C@@](O)(C(=O)C(=O)N3CCCC[C@H]3C(=O)O[C@H](/C(C)=C/[C@@H]3CC[C@H](Cl)[C@H](OC)C3)[C@H](C)[C@@H](O)CC1=O)[C@H](C)C[C@@H]2OC
AUC of viability dose-response curve
Conditions	NOMO1 [2]	P12-Ichikawa [1]	SEM cells [3]
HPLM + 10% dialyzed FBS	457	467	451
RPMI 5 mM glucose + 10% FBS	466	456	453
RPMI 5 mM glucose + 10% dialyzed FBS	474	468	449

SEM cells [4], HPLM + 10% dialyzed FBS
Conditions	cell viability [%]
0.000781 µM	115
0.00234 µM	128
0.00702 µM	117
0.0211 µM	135
0.0632 µM	122
0.19 µM	128
0.569 µM	117
1.71 µM	109
5.12 µM	109
15.4 µM	105
46.1 µM	104

COc1ccc2c(c1)c(CC(=O)O)c(C)n2C(=O)c1ccc(Cl)cc1
AUC of viability dose-response curve
Conditions	NOMO1 [2]	P12-Ichikawa [1]	SEM cells [3]
HPLM + 10% dialyzed FBS	461	440	459
RPMI 5 mM glucose + 10% FBS	473	466	432
RPMI 5 mM glucose + 10% dialyzed FBS	460	466	466

CC(=O)OCCN1C(=O)c2c(C)nc3ccc([S+](=O)([O-])N4CCOCC4)cc3c2C1=O
AUC of viability dose-response curve
Conditions	HPLM + 10% dialyzed FBS	RPMI 5 mM glucose + 10% FBS	RPMI 5 mM glucose + 10% dialyzed FBS
NOMO1 [2]	337	299	329
SEM cells [3]	471	445	457

SEM cells [4], RPMI 5 mM glucose + 10% dialyzed FBS
Conditions	cell viability [%]
0.000781 µM	112
0.00234 µM	114
0.00702 µM	138
0.0211 µM	131
0.0632 µM	129
0.19 µM	148
0.569 µM	156
1.71 µM	140
5.12 µM	152
15.4 µM	120
46.1 µM	142

Cc1cccc(CN2CCN(C(c3ccccc3)c3ccc(Cl)cc3)CC2)c1 (centres undefined)
AUC of viability dose-response curve
Conditions	NOMO1 [2]	P12-Ichikawa [1]	SEM cells [3]
HPLM + 10% dialyzed FBS	464	460	436
RPMI 5 mM glucose + 10% FBS	451	429	444
RPMI 5 mM glucose + 10% dialyzed FBS	460	456	443

SEM cells [4], RPMI 5 mM glucose + 10% dialyzed FBS
Conditions	cell viability [%]
0.000781 µM	144
0.00234 µM	121
0.00702 µM	122
0.0211 µM	130
0.0632 µM	45.3
0.19 µM	104
0.569 µM	135
1.71 µM	126
5.12 µM	82.2
15.4 µM	121
46.1 µM	113

CC(C)(C)c1cnc(CSc2cnc(NC(=O)C3CCNCC3)s2)o1
AUC of viability dose-response curve
Conditions	NOMO1 [2]	P12-Ichikawa [1]	SEM cells [3]
HPLM + 10% dialyzed FBS	289	250	297
RPMI 5 mM glucose + 10% FBS	321	321	309
RPMI 5 mM glucose + 10% dialyzed FBS	312	330	311

CC(C)n1cnc2c(NCCCCCCNC(=O)OC(C)(C)C)nc(NCCO)nc21
AUC of viability dose-response curve
Conditions	NOMO1 [2]	P12-Ichikawa [1]	SEM cells [3]
HPLM + 10% dialyzed FBS	443	464	453
RPMI 5 mM glucose + 10% FBS	455	449	462
RPMI 5 mM glucose + 10% dialyzed FBS	469	449	454

CC(=O)NCCC(=O)N[C@@H](CCC(N)=O)C(=O)N[C@@H](CO)C(=O)N[C@@H](CCC(N)=O)C(=O)N[C@@H](CCC(N)=O)C(=O)N[C@H](C(=O)N[C@@H](Cc1ccccc1)C(=O)N[C@]1(C)CCCCCC/C=C\CCC[C@@](C)(C(=O)N[C@@H](CCC(N)=O)C(=O)N[C@@H](CC(N)=O)C(N)=O)NC(=O)[C@H](CC(C)C)NC(=O)[C@H](CC(C)C)NC(=O)[C@@H](CCCNC(=N)N)NC(=O)[C@H](Cc2c[nH]c3ccccc23)NC(=O)[C@H](CC(C)C)NC(=O)[C@H](CC(N)=O)NC1=O)[C@H](C)O
AUC of viability dose-response curve
Conditions	NOMO1 [2]	P12-Ichikawa [1]	SEM cells [3]
HPLM + 10% dialyzed FBS	456	461	376
RPMI 5 mM glucose + 10% FBS	451	460	321
RPMI 5 mM glucose + 10% dialyzed FBS	426	437	346

CC(=O)Nc1ccc(O)cc1
AUC of viability dose-response curve
Conditions	NOMO1 [2]	P12-Ichikawa [1]	SEM cells [3]
HPLM + 10% dialyzed FBS	464	455	472
RPMI 5 mM glucose + 10% FBS	459	458	476
RPMI 5 mM glucose + 10% dialyzed FBS	463	470	467

CC(C)C[C@H](NC(=O)CNC(=O)c1cc(Cl)ccc1Cl)B(O)O
SEM cells [3]
Conditions	AUC of viability dose-response curve
HPLM + 10% dialyzed FBS	190
RPMI 5 mM glucose + 10% FBS	190
RPMI 5 mM glucose + 10% dialyzed FBS	177

cell viability [%]
Conditions	NOMO1 [6]	P12-Ichikawa [5]	SEM cells [4]
HPLM + 10% dialyzed FBS, 0.000781 µM	88.3	91	86.3
HPLM + 10% dialyzed FBS, 0.00234 µM	104	98.3	77.4
HPLM + 10% dialyzed FBS, 0.00702 µM	106	99.7	109
HPLM + 10% dialyzed FBS, 0.0211 µM	33.1	14.2	19.6
HPLM + 10% dialyzed FBS, 0.0632 µM	125	106	107
HPLM + 10% dialyzed FBS, 0.19 µM	92	78	12.5
HPLM + 10% dialyzed FBS, 0.569 µM	20.4	6.35	7.52
HPLM + 10% dialyzed FBS, 1.71 µM	9.39	5.51	6.82
HPLM + 10% dialyzed FBS, 5.12 µM	4.5	4.53	6.78
HPLM + 10% dialyzed FBS, 15.4 µM	4.57	3	4.58
HPLM + 10% dialyzed FBS, 46.1 µM	4.02	2.23	3.36
RPMI 5 mM glucose + 10% FBS, 0.000781 µM	81.1	78.7	88.4
RPMI 5 mM glucose + 10% FBS, 0.00234 µM	88.8	89	85.9
RPMI 5 mM glucose + 10% FBS, 0.00702 µM	100	85.8	103
RPMI 5 mM glucose + 10% FBS, 0.0211 µM	16.8	11.8	15.2
RPMI 5 mM glucose + 10% FBS, 0.0632 µM	104	102	113
RPMI 5 mM glucose + 10% FBS, 0.19 µM	86.2	73.1	11.4
RPMI 5 mM glucose + 10% FBS, 0.569 µM	19.7	6.15	7.76
RPMI 5 mM glucose + 10% FBS, 1.71 µM	7.24	5.14	5.7
RPMI 5 mM glucose + 10% FBS, 5.12 µM	5.18	4.49	4.81
RPMI 5 mM glucose + 10% FBS, 15.4 µM	4.14	3.12	3.3
RPMI 5 mM glucose + 10% FBS, 46.1 µM	2.67	1.86	2.05
RPMI 5 mM glucose + 10% dialyzed FBS, 0.000781 µM	98.5	88.7	83.2
RPMI 5 mM glucose + 10% dialyzed FBS, 0.00234 µM	94.2	88.6	68.2
RPMI 5 mM glucose + 10% dialyzed FBS, 0.00702 µM	108	91.2	90.6
RPMI 5 mM glucose + 10% dialyzed FBS, 0.0211 µM	33.5	21.6	16.8
RPMI 5 mM glucose + 10% dialyzed FBS, 0.0632 µM	96.9	100	107
RPMI 5 mM glucose + 10% dialyzed FBS, 0.19 µM	107	88	17.6
RPMI 5 mM glucose + 10% dialyzed FBS, 0.569 µM	28.3	6.52	7.97
RPMI 5 mM glucose + 10% dialyzed FBS, 1.71 µM	8.85	5.26	6.58
RPMI 5 mM glucose + 10% dialyzed FBS, 5.12 µM	5.16	4.56	5.53
RPMI 5 mM glucose + 10% dialyzed FBS, 15.4 µM	4.61	2.86	4.01
RPMI 5 mM glucose + 10% dialyzed FBS, 46.1 µM	2.91	1.63	2.9
